Reference: patent US20100268187A1, “PACKAGING FOR SIROLIMUS AND COMPOSITION THEREOF” (Ranbaxy Laboratories Limited, priority 2009, published 2010)

Test: Stability studies of sirolimus particles packed in vacuum sealed impermeable container at 25° C. and 60% RH, impurities by gradient HPLC
Assay type: physicochemical
Conditions: three months
Description: Sirolimus particles (d90-4.1 micron) were packed in a bag made up of laminate having a polyester and a polyethylene layer wherein the layers have a thickness of 12 micron and 75 micron, respectively. The bag was sealed under vacuum. The vacuum sealed bag was put into second bag made up of laminate having polyester, aluminium foil, polyester and polyethylene layer wherein the layers have a thickness of 12 micron, 12 micron, 12 micron and 75 microns, respectively. The second bag was sealed under vacuum and was subjected to stability studies at 25° C. and 60% RH for three months.
Quantitative determination was carried out using Gradient High Performance Liquid Chromatography with a mixture of ammonium phosphate buffer and an organic phase (acetonitrile and tetrahydrofuran) as the mobile phase, ACE C18, HL, 5 μm column as a stationary phase and a UV detector.

CO[C@H]1C[C@@H]2CC[C@@H](C)[C@@](O)(O2)C(=O)C(=O)N2CCCC[C@H]2C(=O)O[C@H]([C@H](C)C[C@@H]2CC[C@@H](O)[C@H](OC)C2)CC(=O)[C@H](C)/C=C(\C)[C@@H](O)[C@@H](OC)C(=O)[C@H](C)C[C@H](C)/C=C/C=C/C=C/1C [sirolimus particles, Sirolimus]
Stability on storage: stable
